# Source: patent publication US6514692B2, “Method for treatment of immunodeficiency virus infection” (priority 1996, dated 2003)
# Where “and” joins values, the source holds several entries; their conditions need not be identical. Equal entries are not always repeated. Where no end group is shown, it is not given here.
# Experiments:
# [1] = in vitro; conditions: human, ME180 cells
# From the text: (§1) ME180 cells, a cervical epithelial cell line, were obtained from the American Type Culture Collection. These cells were thawed from liquid nitrogen and grown in RPMI 1640 medium supplemented with 10t fetal bovine serum, glutamine and antibiotics. The cells were adherent and were trypsinized (0.5% trypsin in HBSS) to remove them from the flask for passaging and use in assays. For use in the microtiter transmission inhibition assay, ME180 cells were trypsinized, washed and seeded in 96-well flat bottom microtiter plates (COSTAR) at a density of 5×10^3 cells per well. The cells were incubated at 37° C. for 24 hours prior to the tart of the assay. H9 cells chronically infected with he SK1 isolate of HIV-1 were treated with 200 μg/ml mitomycin C for 60 minutes at 37° C. After treatment the cells were washed three times with tissue culture medium. The chronically infected lymphocytes were added to each well at a density of 2×10^4 cells per well. The concentration of mitomycin C used in the treatment of the lymphocytes was chosen to allow lymphocyte survival for the period of time required to transmit virus to the uninfected ME180 cells, but to die prior to the time of assay so as not to contribute to the p24 signal used as the endpoint (see below). In the transmission assay the lytic peptides D4E1 and D2A21, with and without 150 μg/ml pig mucin, were added prior to the addition of chronically infected cells or were mixed with the chronically infected cells prior to their addition to the monolayer of ME180 cells. Mucin was included because it is an abundant constituent of the normal vaginal secretions of a human being, thus any chemotherapeutic agent targeting HIV should be active in its presence if it is to have clinical value. […] The lymphocytes and peptide were co-cultured with the ME180 cells for 6 hours and then removed by washing the ME180 monolayer four times with PBS. The plate was then incubated at 37° C. for six days. Medium was removed and changed every 48 hours during the incubation stage. No further peptide was added after the initial dose. At six days post-co-cultivation, the supernatant was removed from the wells and evaluated for the quantity of p24 antigen by ELISA. The ELISA was performed according to the manufacturer's recommendations. The amount of virus production in wells treated with various concentrations of the peptides was evaluated with appropriate cell and virus controls. Data are reported as a percent of virus control at each drug concentration. Linear regression analysis was used to calculate the […] and IC95 concentrations of the transmission inhibitor. […] TI represents the toxicity index, which is the ratio of the TC50/IC50, and is an indication of the relative concentrations window that exists between efficacy and toxicity.
# [2] = tested on: ME180 cells; test: toxicity (XTT) in transmission inhibition assay; conditions: for TOXICITY VALUES (XTT), single samples: samples 1-3
# From the text: as §1
# [3] = 0.32 μg/ml, with 150 μg/ml pig mucin
# [4] = 1 μg/ml, with 150 μg/ml pig mucin
# [5] = 3.2 μg/ml, with 150 μg/ml pig mucin
# [6] = 10 μg/ml, with 150 μg/ml pig mucin
# [7] = 32 μg/ml, with 150 μg/ml pig mucin
# [8] = 100 μg/ml, with 150 μg/ml pig mucin
sequence,measurement,setting,value
FKLRAKIKVRLRAKIKL [D4E1],"viability at 6 h, 0.32 µg/mL",[1],98.6%
same,"viability at 6 h, 1 µg/mL",[1],99.2%
same,"viability at 6 h, 3.2 µg/mL",[1],95.4%
same,"viability at 6 h, 10 µg/mL",[1],97.7%
same,"viability at 6 h, 32 µg/mL",[1],100%
same,"viability at 6 h, 100 µg/mL",[1],27.1%
same,"TOXICITY VALUES (XTT), MEAN","[2]; 0.32 μg/ml, no mucin",0.521 O.D. @ 450/650 nm
same,"TOXICITY VALUES (XTT), single samples","[2]; 0.32 μg/ml, no mucin",0.518 O.D. @ 450/650 nm and 0.528 O.D. @ 450/650 nm and 0.516 O.D. @ 450/650 nm
same,"TOXICITY VALUES (XTT), MEAN",[2]; [3],0.521 O.D. @ 450/650 nm
same,"TOXICITY VALUES (XTT), single samples",[2]; [3],0.518 O.D. @ 450/650 nm and 0.528 O.D. @ 450/650 nm
same,"TOXICITY VALUES (XTT), MEAN","[2]; 1 μg/ml, no mucin",0.523 O.D. @ 450/650 nm
same,"TOXICITY VALUES (XTT), single samples","[2]; 1 μg/ml, no mucin",0.535 O.D. @ 450/650 nm and 0.523 O.D. @ 450/650 nm and 0.511 O.D. @ 450/650 nm
same,"TOXICITY VALUES (XTT), MEAN",[2]; [4],0.523 O.D. @ 450/650 nm
same,"TOXICITY VALUES (XTT), single samples",[2]; [4],0.535 O.D. @ 450/650 nm and 0.523 O.D. @ 450/650 nm and 0.511 O.D. @ 450/650 nm
same,"TOXICITY VALUES (XTT), MEAN","[2]; 3.2 μg/ml, no mucin",0.503 O.D. @ 450/650 nm
same,"TOXICITY VALUES (XTT), single samples","[2]; 3.2 μg/ml, no mucin",0.486 O.D. @ 450/650 nm and 0.513 O.D. @ 450/650 nm
same,"TOXICITY VALUES (XTT), MEAN",[2]; [5],0.503 O.D. @ 450/650 nm
same,"TOXICITY VALUES (XTT), single samples",[2]; [5],0.486 O.D. @ 450/650 nm and 0.513 O.D. @ 450/650 nm
same,"TOXICITY VALUES (XTT), MEAN","[2]; 10 μg/ml, no mucin",0.515 O.D. @ 450/650 nm
same,"TOXICITY VALUES (XTT), single samples","[2]; 10 μg/ml, no mucin",0.493 O.D. @ 450/650 nm and 0.526 O.D. @ 450/650 nm and 0.524 O.D. @ 450/650 nm
same,"TOXICITY VALUES (XTT), MEAN",[2]; [6],0.515 O.D. @ 450/650 nm
same,"TOXICITY VALUES (XTT), single samples",[2]; [6],0.493 O.D. @ 450/650 nm and 0.526 O.D. @ 450/650 nm and 0.524 O.D. @ 450/650 nm
same,"TOXICITY VALUES (XTT), MEAN","[2]; 32 μg/ml, no mucin",0.529 O.D. @ 450/650 nm
same,"TOXICITY VALUES (XTT), single samples","[2]; 32 μg/ml, no mucin",0.551 O.D. @ 450/650 nm and 0.513 O.D. @ 450/650 nm and 0.524 O.D. @ 450/650 nm
same,"TOXICITY VALUES (XTT), MEAN",[2]; [7],0.529 O.D. @ 450/650 nm
same,"TOXICITY VALUES (XTT), single samples",[2]; [7],0.551 O.D. @ 450/650 nm and 0.513 O.D. @ 450/650 nm and 0.524 O.D. @ 450/650 nm
same,"TOXICITY VALUES (XTT), MEAN","[2]; 100 μg/ml, no mucin",0.143 O.D. @ 450/650 nm
same,"TOXICITY VALUES (XTT), single samples","[2]; 100 μg/ml, no mucin",0.138 O.D. @ 450/650 nm and 0.162 O.D. @ 450/650 nm and 0.128 O.D. @ 450/650 nm
same,"TOXICITY VALUES (XTT), MEAN",[2]; [8],0.143 O.D. @ 450/650 nm
same,"TOXICITY VALUES (XTT), single samples",[2]; [8],0.138 O.D. @ 450/650 nm and 0.162 O.D. @ 450/650 nm and 0.128 O.D. @ 450/650 nm
